Key:
[1] = tested on: T6-17 cells; test: Anchorage-independent growth (soft agar colony) screening, T6-17 cells; type: cell-based, murine; details: p<0.05, FIG. 1
Experimental: (§1) Targeted molecules were screened in vitro for anti-tumor activity using a modified […] growth of transformed cell assay, as described in Fukazawa et al. (1995), Anal. Biochem., 10:83-90. Anchorage-independent growth capability is perhaps the best indicator of the malignant phenotype and is determined by efficiency of cells to form colonies in soft agar (Drebin, et al., 1985). All experiments were conducted in 6 cm dishes in triplicate. Agar bottom layers consisted of 3 ml 0.25% agarose/DMEM (Dulbecco's Modified Eagle Medium) supplemented with 10% FBS (Fetal Bovine Serum), 2 mM L-glutamine, and 100μ/ml Penicillin/1 μg/ml Streptomycin. About 1000-2000 cells T6-17/SK-BR-3 are layered on the top in 1 ml 0.18% agarose/DMEM, 10% FBS, 2 mM L-glutamine, and 100 u/ml Penicillin/i 1 μg/ml Streptomycin. Cultures were treated every 3 days with 0.5 ml of supplemented DMEM containing measured amounts of the Her2 inhibitors, or DMSO (dimethyl sulfoxide) alone. On the day before the colonies were counted, the samples were incubated with 1 ml of Hank's Balanced Salt Solution containing 1 mg/ml p-iodonitrotetrazolium violet (INT, Sigma) to stain colonies. The next day, colonies were counted using a 7× achromatic magnifying eyepiece (Bausch and Lomb). Triplicate cultures were counted on day 21 and will be verified by at least two different persons. […]

[2] = tested on: SK-BR-3 cells; test: Anchorage-independent growth (soft agar colony) screening, SK-BR-3 cells; type: cell-based, human; details: p<0.05, FIG. 1
Experimental: as §1

Q: Which “cellular growth in culture (colonies in soft agar)” value [1] does the source give for `CC(C)(C#Cc1cc(C(F)(F)F)cc(C(F)(F)F)c1)NC(=S)Nc1cccc(F)c1` [S22—04] here?
A: The value was “reduced cellular growth in culture”.

Q: What about the “cellular growth in culture (colonies in soft agar)” value [2] of the same compound?
A: Its value is “reduced cellular growth in culture”.

Reference: patent US8993634B2, “Methods and use of compounds that bind to Her2/neu receptor complex” (The Trustees Of The University Of Pennsylvania, priority 2010, dated 2015)
